Measured values published in patent US9872868B2, “Mitochondrially-targeted electrophilic compounds and methods of use for the treatment of cancer” (UAB Research Foundation, priority 2013, dated 2018).

Assays:
breast cancer cells = conditions: by altering p38 and ERK signaling; cited from earlier work
[1] = test system: cancer or noncancer cells; assay: Cytotoxicity of the MTE alone; format: cell-based; conditions: data not shown
[2] = test system: aconitase (ACO), isocitrate dehydrogenase (IDH), and α-ketoglutarate dehydrogenase (KGDH); conditions: cited from earlier work
[3] = test system: MDA-MB 231 breast cancer cells; assay: Cell adhesion (reattachment after scraping), viable non-adherent cells counted with trypan blue; format: cell-based, human
Protocol: FIG. 7. Two ×10^5 cells/plate were plated on a 6-well plate, 24 hrs after plating cells were starved in 0.5% FCS containing media for another 24 hrs. Cells were then treated for another 24 hrs with increasing doses of IBTP or the non-reactive analog butyl-triphenylphosphonium (BTPP) as a control. Cells were scraped and made into single cell suspension. Cells were counted and plated in 100-mm tissue culture plate. After 24 hrs the media is collected, centrifuged and the viable cells were counted using trypan blue.
FIG. 2. Two×10^5 cells/plate were plated on a 6-well plate, 24 hrs after plating cells were starved in 0.5% FCS containing media for another 24 hrs.
Cells were then treated for another 24 hrs with increasing doses of IBTP or the non-reactive analog butyl-triphenylphosphonium (BTPP) as a control. Cells were scraped and made into single cell suspension. Cells were counted and plated in 100-mm tissue culture plate. After 24 hrs the media is collected, centrifuged and the viable cells were counted using trypan blue.

[4] = test system: MDA-MB 231 breast cancer cells; assay: Cell death and clonogenic survival; format: cell-based
[5] = test system: MCF10A nontumorigenic cells; assay: Sensitization to doxorubicin in nontumorigenic cells; format: cell-based; conditions: data not shown
HIF-1α = HIF-1α stabilization by western blotting; format: cell-based, human
Protocol: FIG. 5. Effects of an MTE on HIF-1α. MDA-MB-231 cells were incubated for 8 h under normoxia or hypoxia and were treated with either 10 μM IBTP or bTPP for 4 h. The lysates were collected and analyzed for HIF-1α stabilization by western blotting.
However, the mechanism for this decrease in HIF-1α protein is not clear. One possibility is that IBTP inhibits the enzyme within the Krebs cycle, KGDH, that is responsible for converting α-ketoglutarate to succinyl-CoA. Inhibition of this enzyme would cause an increase in α-ketoglutarate, which is a cofactor for the prolyl hydroxylase involved in HIF-1α degradation. We propose that MTEs affect HIF-1α stabilization at least in part, by modulating the activity of KGDH and increasing intracellular levels of α-ketoglutarate. KGDH was previously shown to be among the proteins which form covalent adducts with IBTP (13). Importantly, decreased stabilization of HIF-1α prevents the bioenergetic adaptation to hypoxia in breast cancer cells, as we have recently shown (11)(in press, see Appendix 1).

MDA-MB 231 cells = assay: Mitochondrial bioenergetic assay, Extracellular Flux Analyzer XF-24 (OCR); format: cell-based, human; conditions: 5 μM, 4 h, 0.5% serum containing medium, vs EtOH vehicle
Protocol: FIG. 3. Bioenergetic response of breast cancer cells to MTE. Panel A. A schematic representation of the mitochondrial bioenergetic assay in an Extracellular Flux Analyzer XF-24 (Seahorse Biosciences). Panel A: Sequential injections of oligomycin, FCCP, and Antimycin A allow determination of the component mitochondrial bioenergetic parameters. Panel B. MDA-MB 231 cells were treated for 4 h in 0.5% serum containing medium with EtOH vehicle, IBTP (5 μM), or BTPP (5 μM) and the OCR measured over time. Panel C. Comparison of basal OCR, ATP-dependent OCR, and reserve capacity (RC) with veh and IBTP treatments. Each point is the mean of a minimum of 3 determinations±SEM, from at least 2 independent experiments. Asterisks represent p<0.05. Recent work has shown that MTEs can modulate cell signaling, and depending upon the specific MTE, may do so without causing overt cellular toxicity to cancer cells or normal cells (12). MTEs are small molecules which consist of a triphenylphosphonium lipophilic cationic moiety and a leaving group such as iodide, which renders the adjacent carbon electrophilic. […] We have previously shown reserve capacity is indicative of the cells' ability to withstand a “second hit” of oxidative stress (7).

[6] = i.p. injection; cited from earlier work
[7] = cited from earlier work

CCCCC/C=C/C=C1/C(=O)C=C[C@@H]1C/C=C\CCCC(=O)O [15d-PGJ2, 15 deoxy-prostaglandin J2]
migration of breast cancer cells (breast cancer cells): inhibits migration

ICCCC[P+](c1ccccc1)(c1ccccc1)c1ccccc1 [IBTP, iodobutyl triphenylphosphonium iodide]
cytotoxicity [1]: not cytotoxic | covalent adducts with Krebs cycle proteins [2]: forms covalent adducts | reattachment to tissue culture plates after scraping ([3]; 10 μM, 24 h): failed to reattach | inhibition at 10 µM ([3]; Homo sapiens, MDA-MB-231, read-out: cells whose adhesion is inhibited after detachment): ~15% | overt cell death ([4]; 10 μM, 24 h): no evidence of overt cell death | clonogenic survival ([4]; 10 μM, data not shown): significantly decreased clonogenic survival | cytotoxicity at higher concentrations ([4]; concentrations higher than 10 μM, MDA-MB 231 and other cell types): can be cytotoxic | sensitization to doxorubicin [5]: did not sensitize | constitutive and hypoxia-inducible expression of HIF-1α protein (HIF-1α; MDA-MB-231, 10 μM, 4 h, normoxia or hypoxia 8 h): inhibits both constitutive and hypoxia-inducible expression of HIF-1α protein | basal HIF-1α stabilization (HIF-1α; MDA-MB-231, data not shown): inhibited basal HIF-1α stabilization both time and dose-dependently | basal OCR (MDA-MB 231 cells): decrease basal OCR | reserve capacity (RC) (MDA-MB 231 cells): completely abrogates the reserve capacity

COC1=C(OC)C(=O)C(CCCCCCCCCC[P+](c2ccccc2)(c2ccccc2)c2ccccc2)=C(C)C1=O [mitoQ]
dose up to which no toxicity was observed [6]: up to 750 nmol mitoQ/mouse | oral bioavailability ([7]; clinical trials): orally bioavailable | tolerability ([7]; clinical trials): well tolerated | efficacy in Parkinson's Disease ([7]; phase I clinical trials): not found to be effective
